Source: patent US11147272B2, “Pyridone compounds and agricultural and horticultural fungicides comprising the same as active ingredients” (MITSUI CHEMICALS AGRO, INC., priority 2017, dated 2021)

Key:
Botrytis cinerea = assay: Test Example B: Gray mold on tomato; details: for Test B control value class: class of control value
Plasmopara viticola = assay: Test Example G: Downy mildew on vine; details: for Test G control value class: Downy mildew on vine (Neomuscat), 2.5 ml/pot, assessed 7 to 10 days after inoculation; for Test G control value: 7 to 10 days after inoculation
Magnaporthe grisea = assay: whole plant or invertebrate; format: in vivo; details: for Test A control value class: class of control value
Phytophthora infestans = assay: whole plant or invertebrate; format: in vivo; details: for Test F control value class: class of control value
[1] = system: Colletotrichum orbiculare; assay: Test Example H: Anthracnose on cucumber; details: for Test H control value class: Anthracnose on cucumber (Sagami Hanjiro), 2.5 ml/pot, assessed 6 to 10 days after inoculation; for Test H control value: 6 to 10 days after inoculation
[2] = system: Blumeria graminis f. sp. hordei; assay: Test Example D: Powdery mildew on barley; details: for Test D control value class: class of control value
Puccinia recondita = assay: Test Example E: Brown rust on wheat; format: in vivo; details: for Test E control value class: class of control value
Alternaia brassicicola = assay: Test Example C: Alternaria sooty spot on cabbage; format: in vivo; details: for Test C control value class: class of control value
Text: Seeds of a test plant (cabbage variety: Shikidori) were planted and cultivated until the cotyledons extended.
<Control Value> Control value=100{1−(n/3)}

[3] = Alternaria sooty spot on cabbage
[4] = Gray mold on tomato, control value class
[5] = Downy mildew on vine, 250 ppm spray
[6] = Blast on rice, control value class
[7] = Late blight on tomato, control value class
[8] = Anthracnose on cucumber, 250 ppm spray
[9] = Powdery mildew on barley, control value class
[10] = Brown rust on wheat, control value class
[11] = Alternaria sooty spot on cabbage, control value class
[12] = 250 ppm drug solution sprayed on test plant

Cn1c(-c2c(F)cc(F)cc2F)c(C(C)(C)C)cc(Br)c1=O [compound 78]
Test B control value class (Botrytis cinerea; Gray mold on tomato): H (more than 50% control value) | Test G control value class (Plasmopara viticola; 250 ppm spray): L (50% or less control value) | Test A control value class (Magnaporthe grisea; Blast on rice): H (more than 50% control value) | Test F control value class (Phytophthora infestans; Late blight on tomato): L (50% or less control value) | Test H control value class ([1]; 250 ppm spray): H (more than 50% control value) | Test D control value class ([2]; Powdery mildew on barley): H (more than 50% control value) | Test E control value class (Puccinia recondita; Brown rust on wheat): H (more than 50% control value) | Test C control value class (Alternaia brassicicola; [3]): H (more than 50% control value)

CCc1cc(Cl)c(=O)n(CC)c1-c1ccc(F)cc1Cl [compound 189]
Test B control value (Botrytis cinerea; [4]): H (more than 50% control value) | Test G control value (Plasmopara viticola; [5]): H (more than 50% control value) | Test A control value (Magnaporthe grisea; [6]): H (more than 50% control value) | Test F control value (Phytophthora infestans; [7]): L (50% or less control value) | Test H control value [1, 8]: H (more than 50% control value) | Test D control value [2, 9]: H (more than 50% control value) | Test E control value (Puccinia recondita; [10]): H (more than 50% control value) | Test C control value (Alternaia brassicicola; [11]): H (more than 50% control value)

CC(C)Cc1cc(Br)c(=O)n(C)c1-c1ccc(Cl)cc1Cl [compound 138]
Test B control value class (Botrytis cinerea; Gray mold on tomato): H (more than 50% control value) | Test G control value class (Plasmopara viticola; 250 ppm spray): L (50% or less control value) | Test A control value class (Magnaporthe grisea; Blast on rice): H (more than 50% control value) | Test F control value class (Phytophthora infestans; Late blight on tomato): L (50% or less control value) | Test H control value class ([1]; 250 ppm spray): H (more than 50% control value) | Test D control value class ([2]; Powdery mildew on barley): L (50% or less control value) | Test E control value class (Puccinia recondita; Brown rust on wheat): H (more than 50% control value) | Test C control value class (Alternaia brassicicola; [3]): H (more than 50% control value)

CCn1c(-c2c(F)cc(F)cc2F)c(COc2ccccc2)cc(Cl)c1=O [compound 308]
Test B control value (Botrytis cinerea; [4]): L (50% or less control value) | Test G control value (Plasmopara viticola; [5]): L (50% or less control value) | Test A control value (Magnaporthe grisea; [6]): H (more than 50% control value) | Test F control value (Phytophthora infestans; [7]): L (50% or less control value) | Test H control value [1, 8]: L (50% or less control value) | Test D control value [2, 9]: L (50% or less control value) | Test E control value (Puccinia recondita; [10]): L (50% or less control value) | Test C control value (Alternaia brassicicola; [11]): H (more than 50% control value)

CCc1cc(Cl)c(=O)n(CC)c1-c1ccc(OC)cc1C [compound 355]
Test B control value (Botrytis cinerea; [4]): H (more than 50% control value) | Test G control value (Plasmopara viticola; [5]): L (50% or less control value) | Test A control value (Magnaporthe grisea; [6]): H (more than 50% control value) | Test F control value (Phytophthora infestans; [7]): L (50% or less control value) | Test H control value [1, 8]: H (more than 50% control value) | Test D control value [2, 9]: H (more than 50% control value) | Test E control value (Puccinia recondita; [10]): H (more than 50% control value) | Test C control value (Alternaia brassicicola; [11]): H (more than 50% control value)

CCn1c(-c2c(F)cc(OC)cc2F)c(C(=O)C(C)(C)C)cc(Cl)c1=O [compound 179]
Test B control value class (Botrytis cinerea; Gray mold on tomato): H (more than 50% control value) | Test G control value class (Plasmopara viticola; 250 ppm spray): L (50% or less control value) | Test A control value class (Magnaporthe grisea; Blast on rice): H (more than 50% control value) | Test F control value class (Phytophthora infestans; Late blight on tomato): L (50% or less control value) | Test H control value class ([1]; 250 ppm spray): H (more than 50% control value) | Test D control value class ([2]; Powdery mildew on barley): H (more than 50% control value) | Test E control value class (Puccinia recondita; Brown rust on wheat): H (more than 50% control value) | Test C control value class (Alternaia brassicicola; [3]): H (more than 50% control value)

CCOc1cc(F)c(-c2c(C(=O)C(C)C)cc(Cl)c(=O)n2CC)c(F)c1 [compound 218]
Test B control value (Botrytis cinerea; [4]): H (more than 50% control value) | Test G control value (Plasmopara viticola; [5]): H (more than 50% control value) | Test A control value (Magnaporthe grisea; [6]): H (more than 50% control value) | Test F control value (Phytophthora infestans; [7]): L (50% or less control value) | Test H control value [1, 8]: H (more than 50% control value) | Test D control value [2, 9]: H (more than 50% control value) | Test E control value (Puccinia recondita; [10]): H (more than 50% control value) | Test C control value (Alternaia brassicicola; [11]): H (more than 50% control value)

CCCc1cc(Br)c(=O)n(CC)c1-c1ccc(OC)cc1Cl [compound 321]
Test B control value (Botrytis cinerea; [4]): H (more than 50% control value) | Test G control value (Plasmopara viticola; [5]): H (more than 50% control value) | Test A control value (Magnaporthe grisea; [6]): H (more than 50% control value) | Test F control value (Phytophthora infestans; [7]): L (50% or less control value) | Test H control value [1, 8]: H (more than 50% control value) | Test D control value [2, 9]: H (more than 50% control value) | Test E control value (Puccinia recondita; [10]): H (more than 50% control value) | Test C control value (Alternaia brassicicola; [11]): H (more than 50% control value)

CCOC(C)(c1cc(Cl)c(=O)n(C)c1-c1c(F)cc(F)cc1F)C(C)C (centres unmarked) [compound 451]
Test B control value (Botrytis cinerea; [12]): L (50% or less control value) | Test G control value (Plasmopara viticola; 250 ppm drug solution sprayed (2.5 ml/pot), grape Neomuscat): L (50% or less control value) | Test A control value (Magnaporthe grisea; [12]): H (more than 50% control value) | Test F control value (Phytophthora infestans; [12]): L (50% or less control value) | Test H control value ([1]; 250 ppm drug solution sprayed (2.5 ml/pot), cucumber Sagami Hanjiro): L (50% or less control value) | Test D control value [2, 12]: H (more than 50% control value) | Test E control value (Puccinia recondita; [12]): L (50% or less control value) | Test C control value (Alternaia brassicicola; [12]): L (50% or less control value)

CCn1c(-c2ccc(F)cc2C)c(CC(C)C)cc(Br)c1=O [compound 204]
Test B control value (Botrytis cinerea; [4]): H (more than 50% control value) | Test G control value (Plasmopara viticola; [5]): H (more than 50% control value) | Test A control value (Magnaporthe grisea; [6]): H (more than 50% control value) | Test F control value (Phytophthora infestans; [7]): L (50% or less control value) | Test H control value [1, 8]: H (more than 50% control value) | Test D control value [2, 9]: H (more than 50% control value) | Test E control value (Puccinia recondita; [10]): H (more than 50% control value) | Test C control value (Alternaia brassicicola; [11]): H (more than 50% control value)

CCOc1cc(F)c(-c2c(C(OC)C(C)C)cc(Cl)c(=O)n2CC)c(F)c1 (centres unmarked) [compound 72]
Test B control value class (Botrytis cinerea; Gray mold on tomato): H (more than 50% control value) | Test G control value class (Plasmopara viticola; 250 ppm spray): H (more than 50% control value) | Test A control value class (Magnaporthe grisea; Blast on rice): H (more than 50% control value) | Test F control value class (Phytophthora infestans; Late blight on tomato): L (50% or less control value) | Test H control value class ([1]; 250 ppm spray): H (more than 50% control value) | Test D control value class ([2]; Powdery mildew on barley): H (more than 50% control value) | Test E control value class (Puccinia recondita; Brown rust on wheat): H (more than 50% control value) | Test C control value class (Alternaia brassicicola; [3]): H (more than 50% control value)

CCn1c(-c2ccc(F)cc2Cl)c(C)cc(Br)c1=O [compound 281]
Test B control value (Botrytis cinerea; [4]): H (more than 50% control value) | Test G control value (Plasmopara viticola; [5]): L (50% or less control value) | Test A control value (Magnaporthe grisea; [6]): L (50% or less control value) | Test F control value (Phytophthora infestans; [7]): L (50% or less control value) | Test H control value [1, 8]: H (more than 50% control value) | Test D control value [2, 9]: H (more than 50% control value) | Test E control value (Puccinia recondita; [10]): H (more than 50% control value) | Test C control value (Alternaia brassicicola; [11]): L (50% or less control value)

CCn1c(-c2ccc(F)cc2)c(C=O)cc(Cl)c1=O [compound 290]
Test B control value (Botrytis cinerea; [4]): L (50% or less control value) | Test G control value (Plasmopara viticola; [5]): L (50% or less control value) | Test A control value (Magnaporthe grisea; [6]): L (50% or less control value) | Test F control value (Phytophthora infestans; [7]): H (more than 50% control value) | Test H control value [1, 8]: L (50% or less control value) | Test D control value [2, 9]: L (50% or less control value) | Test E control value (Puccinia recondita; [10]): L (50% or less control value) | Test C control value (Alternaia brassicicola; [11]): H (more than 50% control value)
